According to patent publication US20250127774A1, “COMPOUNDS FOR LABELLING NUCLEIC ACID AND USES THEREOF” (THE ROYAL INSTITUTION FOR THE ADVANCEMENT OF …, priority 2022, published 2025):
Like-named read-outs stand apart in the source and are kept apart here.

What was measured:
[1] = tested on: MV4-11 cells; assay: Resazurin single toxicity assay; assay type: cell-based; conditions: Homo sapiens, compound alone
Protocol: (§1) Resazurin assays were carried out to test the effectiveness of VdU, VdA and PINK alone in MV4-11 and Jurkat. The resazurin reduction assay is a colorimetric assay which allows to determine a cell's viability based on its metabolic activities.^26 When the cells are alive, the resazurin gets reduced by NADH into its resorufin form by cellular respiration, which is pink and highly fluorescent.^26 When the cells are dead or their metabolisms are impaired, the resazurin remains in its oxidized form, which is blue and has low fluorescence.^26 The cells can then be imaged using a spectrometer to determine how viable they are after each treatment.
(§2) Resazurin Single toxicity assay. MV4-11 and Jurkat cells were seeded in 96-well plates at a density of 20 000 cells/well, in triplicates. The cells were treated with each nucleoside (VdU/VdA) alone diluted in fresh media in 1:4 serial dilutions (˜0.01% DMSO) at concentrations of 1000-0 μM. The cells were treated with PINK alone diluted in fresh media in 1:2 serial dilutions (˜1% DMSO) at concentration of 100-0 μM. The cells were then incubated for 24 h and 72h. 10 μL of 870 μM resazurin was added per well, and incubated for 2-5 hours. After incubation, the fluorescence intensity at 590 nm (excitation=560 nm) was measured using a SpectraMax M5 plate reader.

[2] = tested on: Jurkat cells; assay: Resazurin single toxicity assay; assay type: cell-based; conditions: Homo sapiens, compound alone
Protocol: as §1, §2

[3] = tested on: MV4-11 cells; assay: Resazurin Chou-Talalay optimized toxicity assay; assay type: cell-based, human; conditions: MV4-11, Fa 0.25-0.35 (25% to 35% of cells killed)
Protocol: (§3) Lastly to determine how synergistic the combination of VdU with PINK is in the three leukemia cell lines, another resazurin reduction assay was conducted where VdU and PINK were maintained at a constant 5:1 ratio. The data generated from this resazurin assay were analyzed using the synergy model developed by Chou and Talalay 30, which is based on the median effect dose (IC50) and the slope of the drug response curve, as shown in equation II: […]
(§4) The model allows to quantitatively measure the synergy of drug combinations, by generating a combination index (CI).^30 A CI below 1 indicates a synergistic interaction which means that the effect of the drug combination is greater than the effect of both drugs alone combined.^30A CI equal to 1 indicates an additive interaction which means that the effect of the drug combination is equal to the effect of both drugs alone combined.^30 A CI above 1 indicates an antagonistic interaction which means that the effect of the drug combination is less than the effect of both alone combined. […] Where a DRI above 1 is a favorable dose reduction and a DRI below 1 is an unfavorable dose reduction.^30
Resazurin Chou-Talalay optimized toxicity assay. […] The cells were treated with resazurin, incubated and measured, as described above. The data was processed and analysed in the CompuSyn program used for running Chou-Talalay synergy analyses.^33

[4] = tested on: MV4-11 and Jurkat; assay: Resazurin single toxicity assay, summary over both cell lines; assay type: cell-based; conditions: Homo sapiens, after 24 h and 72h, read-out: IC50 summarised over both cell lines
Protocol: as §1
Overall, VdU presented itself as a good candidate for the combination therapy with PINK due to its low toxicity in the two leukemia cell lines.
as §2

[5] = Photophysical measurements (quantum yield) of PINK and PINK-VdU-ox; assay type: physicochemical; conditions: excitation 488 nm, Rhodamine 6G standard; PINK in aqueous and aprotic solvents, 6 depending on the solvent used
Protocol: PINK (4) undergoes a highly fluorogenic and regioselective IEDDA reaction with VdU (5) to give “PINK-VdU-ox” (6) as a single isomer in a 76% isolated yield after 7d at 60° C. (Scheme 1). The slow rate of this non-templated reaction (Kapp=0.01 M^−1 s^−1, FIG. 5) is due to the combination of an unstrained terminal alkene and unactivated tetrazine.^[49] Over the course of the reaction, a ˜100-fold increase in fluorescence was observed (FIG. 3, c). With a quantum yield (φF)<0.2%, PINK (4) is essentially non-fluorescent in both aqueous and aprotic solvents (FIG. 6).
Highly viscous solvents, including glycerol and polyethylene glycol (PEG 200) induced higher fluorescence of 6, likely by restricting bond rotation and thus suppressing formation of a non-emissive, twisted intramolecular charge transfer (TICT) state.^[50]
Photophysical Measurements. Stock solutions (1-10 mM) of investigated compounds were prepared in DMSO and stored at −20° C. DMSO concentrations were less than 1% after dilution into the respective solvent/aqueous buffer. Measurements were collected on a SpectraMax M5 plate reader (Molecular Devices, Sunnyvale, CA, USA) in 1 cm path-length quartz cuvettes. Quantum yields were obtained by excitation at 488 nm using Rhodamine 6G ((=0.94) in EtOH (n=1.3624) as a fluorescent standard.^[1] Quantum yields were calculated using the equation I: […]

[6] = tested on: MOLM-13 cells; assay: Resazurin Chou-Talalay optimized toxicity assay; assay type: cell-based; conditions: Homo sapiens; MOLM-13, Fa 0.50 (50% cells killed); read-out: Concentration of compound alone required at Fa
Protocol: as §3, §4
(§5) Resazurin Chou-Talalay optimized toxicity assay. MV4-11, MOLM-13 and Jurkat cells were seeded in 96-well plates at a density of 20 000 cells/well, 25 000 cells/well and 30 000 cells/well, respectively, in triplicates. The cells were first treated with VdU diluted in fresh media in 1:4 serial dilutions (˜0.01% DMSO) at concentrations of 500-0 μM alone and in combination, and incubated overnight. 24h post nucleoside addition, the cells were treated with PINK diluted in fresh media in 1:4 serial dilutions (˜1% DMSO) at concentrations of 100-0 μM alone or in combination, and incubated for 72 h. […] The cells were treated with resazurin, incubated and measured, as described above. The data was processed and analysed in the CompuSyn program used for running Chou-Talalay synergy analyses.^33

[7] = tested on: Jurkat cells; assay: Resazurin Chou-Talalay optimized toxicity assay; assay type: cell-based; conditions: Homo sapiens, Fa 0.50 (50% cells killed), read-out: Concentration of compound alone required at Fa
Protocol: as §3, §4, §5

[8] = tested on: H1299 cells; assay: FACS cell cycle analysis; assay type: cell-based, human; conditions: H1299, 48 h and 72 h after the initial treatment
Protocol: 5-VdU and PINK combinatory impact on the cell cycle. FACS analysis of H1299 cells treated with 5-VdU/PINK whos that the cell cycle progression is severely impacted upon combinatory treatment. […] (see FIG. 26). Percentage of H1299 cells undergoing apoptosis was indicated by staining with Apotracker™ Green, induced after treatment with 1 μM 5-VdU and 10 μM PINK for different time points. H1299 cells were seeded at a density of 20% and treated with 5-VdU and PINK in the indicated concentrations. One day after the last treatment, the medium was exchanged. The cells were then stained with the Apotracker™ Green dye and Hoechst. Images were taken 72h after the first treatment. (C) H1299 cells were treated with 1 μM 5-VdU for 24 h and subsequently with 5 μM PINK for another 24 h.

[9] = MV4-11, 24 h incubation, read-out: IC50 value (24 h)
[10] = MV4-11, 72 h incubation, read-out: IC50 value (72 h)
[11] = 24 h incubation, read-out: IC50 value (24 h)
[12] = 72 h incubation, read-out: IC50 value (72 h)

## Cc1nnc(-c2ccc3cc4ccc(N(C)C)cc4nc3c2)nn1 [PINK]
[1]; [9]
  IC50: 5.7 µM
[1]; [10]
  IC50: 6.2 µM
[2]; [11]
  IC50: 7 µM
[2]; [12]
  IC50: 4.4 µM
[3]
  Concentration of compound alone required at Fa: 3.2 µM
[4]
  IC50: ~5 µM
[5]
  quantum yield (φF): < 0.2%
[6]
  IC50: 1.2 µM
[7]
  IC50: 1.1 µM
[8]
  cell cycle profile (time course): mostly unperturbed cell cycle profiles

## C=Cc1cn([C@H]2C[C@H](O)[C@@H](CO)O2)c(=O)[nH]c1=O [VdU, 5-vinyl-2′-deoxyuridine]
[1]; [9]
  IC50: > 1000 µM
[1]; [10]
  IC50: > 1000 µM
[2]; [11]
  IC50: > 1000 µM
[2]; [12]
  IC50: 52 µM
[3]
  Concentration of compound alone required at Fa: 59 µM
[4]
  IC50: > 1000 µM
[6]
  IC50: 4.2 µM
[7]
  IC50: 3.7 µM
[8]
  cell cycle profile (time course): mostly unperturbed cell cycle profiles
